In publication PMC10279527, “Structural basis of metabolite transport by the chloroplast outer envelope channel OEP21” (Nature Structural & Molecular Biology, 2023):
“And” between values parts separate entries of the source, which are not always exact repeats. Equal values may be shown once. Read-outs that look alike come from different tables or passages of the source.

Experiments:
Assay type in all cases: binding, garden pea
[1] = target: T1, OEP21ΔL5 (Pisum sativum, UniProt Q9SM57, DEL70-80); assay: FP competition with preformed MANT-ATP/OEP21ΔL5 complex
T1 construct: made in house; host or cells: Escherichia coli BL21(DE3) (described for OEP21)
Procedure: (§1) FP assays were performed on a spectrofluorometer FP-8300 (Jasco) equipped with a water bath cooling system MCM-100 (Jasco). […] A buffer containing no EDTA was used when MgCl2 was present. […] KD values were derived by fitting the data to a one-site binding model. […] All FP experiments were performed as triplicates.

[2] = target: OEP21 (Pisum sativum, UniProt Q9SM57); assay: CD-detected thermal melting of OEP21 in presence of metabolites; set-up: made in house; details: for raw CD / rel CD: 500 uM; for Melting point: ED Fig. 4a
[3] = target: T2, OEP21 wt (Pisum sativum, UniProt Q9SM57); assay: NMR titrations (2D-[15N,1H]-TROSY) of OEP21 with metabolites
T2 construct: made in house

[4] = target: T2, OEP21 wt; assay: FP competition with preformed MANT-ATP/OEP21-WT complex
Procedure: as §1

Question: What does the source list for `O=C[C@H](O)COP(=O)(O)O` [GAP, D-glyceraldehyde-3-phosphate]?
Answer: IC50 ([1]; IC50 (dissociation of MANT-ATP), OEP21ΔL5, 1 µM MANT-ATP, 1 µM protein): ~26000 µM; IC50 ([1]; dL5, individual determinations, read-out: IC50): 31100 µM and 20400 µM; IC50 ([1]; dL5, read-out: mean IC50): 25700 µM; raw CD ([2]; 22.5 °C): -23.3707; rel CD ([2]; 22.5 °C): 0.97; raw CD ([2]; 23 °C): -23.5919; rel CD ([2]; 23 °C): 0.9806; raw CD ([2]; 23.5 °C): -24.399; rel CD ([2]; 23.5 °C): 1.019; raw CD ([2]; 24 °C): -24.3596; rel CD ([2]; 24 °C): 1.017; raw CD ([2]; 25 °C): -24.3798; rel CD ([2]; 25 °C): 1.018; raw CD ([2]; 26 °C): -24.239; rel CD ([2]; 26 °C): 1.011; raw CD ([2]; 27 °C): -24.36; rel CD ([2]; 27 °C): 1.017; raw CD ([2]; 28 °C): -24.2279; rel CD ([2]; 28 °C): 1.011; raw CD ([2]; 28.5 °C): -24.3095; rel CD ([2]; 28.5 °C): 1.015; raw CD ([2]; 29 °C): -23.5401; rel CD ([2]; 29 °C): 0.9781; raw CD ([2]; 30 °C): -23.385; rel CD ([2]; 30 °C): 0.9707; raw CD ([2]; 31 °C): -24.0555; rel CD ([2]; 31 °C): 1.003; raw CD ([2]; 32 °C): -24.3068; rel CD ([2]; 32 °C): 1.015; raw CD ([2]; 33 °C): -24.4089; rel CD ([2]; 33 °C): 1.019; raw CD ([2]; 34 °C): -23.805; rel CD ([2]; 34 °C): 0.9907; raw CD ([2]; 35 °C): -24.5097; rel CD ([2]; 35 °C): 1.024; raw CD ([2]; 36 °C): -24.0481; rel CD ([2]; 36 °C): 1.002; raw CD ([2]; 37 °C): -23.8199; rel CD ([2]; 37 °C): 0.9914; raw CD ([2]; 38 °C): -23.8252; rel CD ([2]; 38 °C): 0.9917; raw CD ([2]; 39 °C): -23.7051; rel CD ([2]; 39 °C): 0.986; raw CD ([2]; 68 °C): -6.585; rel CD ([2]; 68 °C): 0.1707; raw CD ([2]; 68.5 °C): -6.193; rel CD ([2]; 68.5 °C): 0.1521; raw CD ([2]; 69 °C): -6.288; rel CD ([2]; 69 °C): 0.1566; raw CD ([2]; 70 °C): -5.958; rel CD ([2]; 70 °C): 0.1409; raw CD ([2]; 70.5 °C): -5.84; rel CD ([2]; 70.5 °C): 0.1352; raw CD ([2]; 71 °C): -5.586; rel CD ([2]; 71 °C): 0.1232; raw CD ([2]; 71.5 °C): -5.682; rel CD ([2]; 71.5 °C): 0.1277; raw CD ([2]; 72 °C): -5.192; rel CD ([2]; 72 °C): 0.1044; raw CD ([2]; 73 °C): -5.167; rel CD ([2]; 73 °C): 0.1032; raw CD ([2]; 74 °C): -4.493; rel CD ([2]; 74 °C): 0.07111; raw CD ([2]; 74.5 °C): -4.638; rel CD ([2]; 74.5 °C): 0.078; raw CD ([2]; 75 °C): -4.942; rel CD ([2]; 75 °C): 0.09249; raw CD ([2]; 75.5 °C): -4.618; rel CD ([2]; 75.5 °C): 0.07706; raw CD ([2]; 76 °C): -4.509; rel CD ([2]; 76 °C): 0.07187; raw CD ([2]; 77 °C): -4.747; rel CD ([2]; 77 °C): 0.0832; raw CD ([2]; 77.5 °C): -4.466; rel CD ([2]; 77.5 °C): 0.06981; raw CD ([2]; 78 °C): -4.843; rel CD ([2]; 78 °C): 0.08778; raw CD ([2]; 78.5 °C): -4.206; rel CD ([2]; 78.5 °C): 0.05742; raw CD ([2]; 79 °C): -3.995; rel CD ([2]; 79 °C): 0.0474; raw CD ([2]; 79.5 °C): -4.497; rel CD ([2]; 79.5 °C): 0.07129; raw CD ([2]; 80 °C): -4.058; rel CD ([2]; 80 °C): 0.05036; raw CD ([2]; 81 °C): -4.059; rel CD ([2]; 81 °C): 0.05042; raw CD ([2]; 82 °C): -4.217; rel CD ([2]; 82 °C): 0.05795; raw CD ([2]; 82.5 °C): -4.026; rel CD ([2]; 82.5 °C): 0.04886; raw CD ([2]; 83 °C): -4.494; rel CD ([2]; 83 °C): 0.07116; raw CD ([2]; 83.5 °C): -4.549; rel CD ([2]; 83.5 °C): 0.07377; raw CD ([2]; 84 °C): -4.1838; rel CD ([2]; 84 °C): 0.05637; raw CD ([2]; 85 °C): -3.693; rel CD ([2]; 85 °C): 0.03299; raw CD ([2]; 86 °C): -3.539; rel CD ([2]; 86 °C): 0.02569; raw CD ([2]; 87 °C): -3.736; rel CD ([2]; 87 °C): 0.03505; raw CD ([2]; 87.5 °C): -3.636; rel CD ([2]; 87.5 °C): 0.03029; raw CD ([2]; 88 °C): -3.641; rel CD ([2]; 88 °C): 0.03053; raw CD ([2]; 88.5 °C): -3.975; rel CD ([2]; 88.5 °C): 0.04642; raw CD ([2]; 89 °C): -3.567; rel CD ([2]; 89 °C): 0.02702; raw CD ([2]; 90 °C): -3.821; rel CD ([2]; 90 °C): 0.03908; raw CD ([2]; 90.5 °C): -3.627; rel CD ([2]; 90.5 °C): 0.02984; raw CD ([2]; 91 °C): -4.011; rel CD ([2]; 91 °C): 0.04814; raw CD ([2]; 91.5 °C): -3.609; rel CD ([2]; 91.5 °C): 0.02901; raw CD ([2]; 92 °C): -3.4371; rel CD ([2]; 92 °C): 0.02081; raw CD ([2]; 93 °C): -3.657; rel CD ([2]; 93 °C): 0.03128; raw CD ([2]; 94 °C): -3.717; rel CD ([2]; 94 °C): 0.03414; raw CD ([2]; 95 °C): -3.854; rel CD ([2]; 95 °C): 0.04065; raw CD ([2]; 96 °C): -3.335; rel CD ([2]; 96 °C): 0.01596; raw CD ([2]; 97 °C): -3.649; rel CD ([2]; 97 °C): 0.0309; raw CD ([2]; 98 °C): -3.661; rel CD ([2]; 98 °C): 0.03146; raw CD ([2]; 99 °C): -3.437; rel CD ([2]; 99 °C): 0.0208; raw CD ([2]; 100 °C): -3.04; rel CD ([2]; 100 °C): 0.001918; Melting point ([2]; OEP21 with 0.5 mM metabolite, CD at 215 nm, Apo 58.5): 59.2 ｡C; Melting point ([2]; OEP21 with 1 mM GAP): 60.2 ｡C; Kd ([3]; KD GAP - Loop5, Loop5, individual KDs): 2700 µM and 4360 µM and 2480 µM; Kd ([3]; KD GAP - Loop5, Mean, Loop5, mean): 3180 µM; Kd ([3]; KD, NMR, Fig. 3b): ~150 µM; Kd ([3]; KDs GAP+Mg, Mean, with Mg, mean): 709 µM; Kd ([3]; KDs GAP+Mg, with Mg, individual KDs): 310 µM and 690 µM and 450 µM and 960 µM and 920 µM and 1170 µM and 470 µM and 980 µM and 750 µM and 710 µM and 670 µM; Kd ([3]; KDs OEP21wt + GAP, Mean, OEP21wt, mean, unit inferred): 152 µM; Kd ([3]; KDs OEP21wt + GAP, OEP21wt, individual KDs, unit inferred): 154 µM and 180 µM and 186 µM and 146 µM and 177 µM and 143 µM and 138 µM and 137 µM and 127 µM and 149 µM; effect of Mg^2+ on binding affinity (in words) ([3]; NMR, Fig. 3h, addition of Mg^2+): decreased the binding affinity to a similar extent; Kd ([3]; affinity of residues in L5, NMR, Fig. 3h): ~3000 µM; fold increase in Kd ([3]; individual determinations KD1-KD12, relative to ATP pH7): 18.8725 and 22.0588 and 22.7941 and 17.8922 and 21.6912 and 17.5245 and 16.9118 and 16.7892 and 15.5637 and 18.2598; fold increase in Kd, mean values ([3]; mean, relative to ATP pH7): 18.7; IC50 ([4]; IC50 (dissociation of MANT-ATP), OEP21-WT, 1 µM MANT-ATP, 1 µM protein): ~10000 µM; IC50 ([4]; IC50, wt, individual determinations): 11000 µM and 10700 µM; IC50 ([4]; mean IC50, wt): 10900 µM
